This is an account of results in ChEMBL document CHEMBL5625206, “Design, synthesis, and evaluation of novel pleuromutilin aryl acrylate derivatives as promising broad-spectrum antibiotics especially for combatting multi-drug resistant gram-negative bacteria” (Eur J Med Chem, 2023).

≈ marks a conversion by molar mass, not a printed value.

What all share (format): functional
For assay [1], the system named is Staphylococcus epidermidis. The assay can be described thus: Antibacterial activity against Staphylococcus epidermidis ATCC 12228 assessed as bacterial growth inhibition incubated for 24 hrs by CLSI based broth microdilution method.
In assay [2] the test system is Staphylococcus aureus. The assay can be described thus: Antibacterial activity against Staphylococcus aureus ATCC 25923 assessed as bacterial growth inhibition incubated for 24 hrs by CLSI based broth microdilution method.
The test system of assay [3] is Staphylococcus aureus. Put plainly: Antibacterial activity against Staphylococcus aureus ATCC 29213 assessed as bacterial growth inhibition incubated for 24 hrs by CLSI based broth microdilution method. A general note: Broth dilution looks for growth in wells or tubes with falling amounts of substance.
Assay [4] deals with Staphylococcus aureus. Put plainly: Antibacterial activity against methicillin-resistant Staphylococcus aureus ATCC 33591 assessed as bacterial growth inhibition incubated for 24 hrs by CLSI based broth microdilution method.
A further assay relates to Escherichia coli. Put plainly: Antibacterial activity against Escherichia coli ATCC 25922 assessed as bacterial growth inhibition incubated for 24 hrs by CLSI based broth microdilution method.
The subject of the next assay is Acinetobacter baumannii. The assay can be described thus: Antibacterial activity against Acinetobacter baumannii ATCC 19606 assessed as bacterial growth inhibition incubated for 24 hrs by CLSI based broth microdilution method.

In general, MIC refers to the lowest concentration found to suppress growth. With `C=C[C@]1(C)C[C@@H](OC(=O)COC(=O)/C=C/c2ccco2)[C@]2(C)[C@H](C)CC[C@]3(CCC(=O)[C@H]32)[C@@H](C)[C@@H]1O`, the MIC in assay [1] is 8 µg/mL (≈ 16 µM); in the assay with Staphylococcus aureus [2], 64 µg/mL (≈ 128 µM); in the assay with Staphylococcus aureus [3] it was 8 µg/mL (≈ 16 µM); with Staphylococcus aureus [4] it was 32 µg/mL (≈ 64.2 µM); with Escherichia coli, 64 µg/mL (≈ 128 µM); in the assay on Acinetobacter baumannii, 64 µg/mL (≈ 128 µM).
Take `C=C[C@]1(C)C[C@@H](OC(=O)COC(=O)/C=C/c2ccccc2)[C@]2(C)[C@H](C)CC[C@]3(CCC(=O)[C@H]32)[C@@H](C)[C@@H]1O`: the minimum inhibitory concentration (MIC) in assay [1] is 16 µg/mL (≈ 31.5 µM); with Staphylococcus aureus [2] it was 4 µg/mL (≈ 7.86 µM); in the assay on Staphylococcus aureus [3], 16 µg/mL (≈ 31.5 µM); in the assay on Staphylococcus aureus [4], 32 µg/mL (≈ 62.9 µM); in the assay on Escherichia coli, 128 µg/mL (≈ 252 µM); in the assay with Acinetobacter baumannii, above 128 µg/mL.
Consider `C=C[C@]1(C)C[C@@H](OC(=O)COC(=O)/C=C/c2ccc3ccccc3c2)[C@]2(C)[C@H](C)CC[C@]3(CCC(=O)[C@H]32)[C@@H](C)[C@@H]1O`, for which the minimum inhibitory concentration (MIC) in assay [1] is 32 µg/mL (≈ 57.3 µM); in the assay on Staphylococcus aureus [2] it was 16 µg/mL (≈ 28.6 µM); with Staphylococcus aureus [3], 32 µg/mL (≈ 57.3 µM); in the assay on Staphylococcus aureus [4], 128 µg/mL (≈ 229 µM); in the assay with Escherichia coli it was above 128 µg/mL; in the assay on Acinetobacter baumannii, above 128 µg/mL.
For `C=C[C@]1(C)C[C@@H](OC(=O)COC(=O)/C=C/c2ccc(-c3ccccc3)cc2)[C@]2(C)[C@H](C)CC[C@]3(CCC(=O)[C@H]32)[C@@H](C)[C@@H]1O`, the MIC is 32 µg/mL (≈ 54.7 µM) in assay [1]; 64 µg/mL (≈ 109 µM) in the assay on Staphylococcus aureus [2]; 32 µg/mL (≈ 54.7 µM) with Staphylococcus aureus [3]; 64 µg/mL (≈ 109 µM) with Staphylococcus aureus [4]; above 128 µg/mL in the assay on Escherichia coli; above 128 µg/mL with Acinetobacter baumannii.
`C=C[C@]1(C)C[C@@H](OC(=O)COC(=O)/C=C/c2cccc(Cl)c2)[C@]2(C)[C@H](C)CC[C@]3(CCC(=O)[C@H]32)[C@@H](C)[C@@H]1O`: the minimum inhibitory concentration (MIC) in assay [1] was found to be 8 µg/mL (≈ 14.7 µM); in the assay on Staphylococcus aureus [2], 16 µg/mL (≈ 29.5 µM); with Staphylococcus aureus [3], 32 µg/mL (≈ 58.9 µM); with Staphylococcus aureus [4] it was 32 µg/mL (≈ 58.9 µM); with Escherichia coli, 64 µg/mL (≈ 118 µM); in the assay on Acinetobacter baumannii, 128 µg/mL (≈ 236 µM).
Take `C=C[C@]1(C)C[C@@H](OC(=O)COC(=O)/C=C/c2ccc(F)c(F)c2F)[C@]2(C)[C@H](C)CC[C@]3(CCC(=O)[C@H]32)[C@@H](C)[C@@H]1O`: the MIC in assay [1] amounted to 16 µg/mL (≈ 28.4 µM); in the assay with Staphylococcus aureus [2] it was 32 µg/mL (≈ 56.9 µM); in the assay on Staphylococcus aureus [3] it was 64 µg/mL (≈ 114 µM); in the assay with Staphylococcus aureus [4], 128 µg/mL (≈ 228 µM); in the assay with Escherichia coli, 64 µg/mL (≈ 114 µM); with Acinetobacter baumannii, 128 µg/mL (≈ 228 µM).
`C=C[C@]1(C)C[C@@H](OC(=O)COC(=O)/C=C/c2ccc(Cn3ccnc3)cc2)[C@]2(C)[C@H](C)CC[C@]3(CCC(=O)[C@H]32)[C@@H](C)[C@@H]1O`: the minimal inhibitory concentration (MIC) in assay [1] is 16 µg/mL (≈ 27.2 µM); in the assay with Staphylococcus aureus [2], 8 µg/mL (≈ 13.6 µM); in the assay on Staphylococcus aureus [3] it was 16 µg/mL (≈ 27.2 µM); with Staphylococcus aureus [4], 32 µg/mL (≈ 54.4 µM); in the assay on Escherichia coli, 64 µg/mL (≈ 109 µM); in the assay with Acinetobacter baumannii, 128 µg/mL (≈ 217 µM).
For the molecule `C=C[C@]1(C)C[C@@H](OC(=O)COC(=O)/C=C/c2ccncc2)[C@]2(C)[C@H](C)CC[C@]3(CCC(=O)[C@H]32)[C@@H](C)[C@@H]1O`, the minimum inhibitory concentration (MIC) in assay [1] was determined as 4 µg/mL (≈ 7.85 µM); in the assay on Staphylococcus aureus [2], 8 µg/mL (≈ 15.7 µM); with Staphylococcus aureus [3], 16 µg/mL (≈ 31.4 µM); in the assay on Staphylococcus aureus [4], 32 µg/mL (≈ 62.8 µM); in the assay on Escherichia coli, 64 µg/mL (≈ 126 µM); in the assay with Acinetobacter baumannii, 64 µg/mL (≈ 126 µM).
On to `C=C[C@]1(C)C[C@@H](OC(=O)COC(=O)/C=C/c2cc(Br)ccc2F)[C@]2(C)[C@H](C)CC[C@]3(CCC(=O)[C@H]32)[C@@H](C)[C@@H]1O`, for which the MIC was 64 µg/mL (≈ 106 µM) in assay [1]; 16 µg/mL (≈ 26.4 µM) in the assay with Staphylococcus aureus [2]; 32 µg/mL (≈ 52.8 µM) in the assay on Staphylococcus aureus [3]; 64 µg/mL (≈ 106 µM) in the assay with Staphylococcus aureus [4]; 64 µg/mL (≈ 106 µM) in the assay on Escherichia coli; 128 µg/mL (≈ 211 µM) in the assay on Acinetobacter baumannii.
On to `C=C[C@]1(C)C[C@@H](OC(=O)COC(=O)/C=C/c2ccc(C(F)(F)F)cc2F)[C@]2(C)[C@H](C)CC[C@]3(CCC(=O)[C@H]32)[C@@H](C)[C@@H]1O`, for which the MIC in assay [1] was 16 µg/mL (≈ 26.9 µM); with Staphylococcus aureus [2], 8 µg/mL (≈ 13.5 µM); in the assay on Staphylococcus aureus [3], 16 µg/mL (≈ 26.9 µM); with Staphylococcus aureus [4] it was 64 µg/mL (≈ 108 µM); in the assay on Escherichia coli, 128 µg/mL (≈ 215 µM); in the assay on Acinetobacter baumannii, above 128 µg/mL.
For `C=C[C@]1(C)C[C@@H](OC(=O)COC(=O)/C=C/c2ccc(C#N)cc2)[C@]2(C)[C@H](C)CC[C@]3(CCC(=O)[C@H]32)[C@@H](C)[C@@H]1O`, the minimum inhibitory concentration (MIC) in assay [1] is 64 µg/mL (≈ 120 µM); in the assay with Staphylococcus aureus [2], 32 µg/mL (≈ 60 µM); with Staphylococcus aureus [3], 64 µg/mL (≈ 120 µM); in the assay on Staphylococcus aureus [4] it was 64 µg/mL (≈ 120 µM); in the assay with Escherichia coli, above 128 µg/mL; with Acinetobacter baumannii it was above 128 µg/mL.
`C=C[C@]1(C)C[C@@H](OC(=O)COC(=O)/C=C/c2ccc(C(F)(F)F)cc2)[C@]2(C)[C@H](C)CC[C@]3(CCC(=O)[C@H]32)[C@@H](C)[C@@H]1O`: the minimum inhibitory concentration (MIC) is 8 µg/mL (≈ 13.9 µM) in assay [1]; 16 µg/mL (≈ 27.7 µM) with Staphylococcus aureus [2]; 16 µg/mL (≈ 27.7 µM) in the assay with Staphylococcus aureus [3]; 128 µg/mL (≈ 222 µM) in the assay on Staphylococcus aureus [4]; 64 µg/mL (≈ 111 µM) with Escherichia coli; above 128 µg/mL in the assay with Acinetobacter baumannii.
Consider `C=C[C@]1(C)C[C@@H](OC(=O)COC(=O)/C=C/c2ccsc2)[C@]2(C)[C@H](C)CC[C@]3(CCC(=O)[C@H]32)[C@@H](C)[C@@H]1O`, for which the MIC stood at 16 µg/mL (≈ 31.1 µM) in assay [1]; 32 µg/mL (≈ 62.2 µM) in the assay on Staphylococcus aureus [2]; 8 µg/mL (≈ 15.5 µM) in the assay with Staphylococcus aureus [3]; 64 µg/mL (≈ 124 µM) with Staphylococcus aureus [4]; 32 µg/mL (≈ 62.2 µM) in the assay on Escherichia coli; 32 µg/mL (≈ 62.2 µM) in the assay with Acinetobacter baumannii.
For `C=C[C@]1(C)C[C@@H](OC(=O)COC(=O)/C=C/c2ccc(F)c(Cl)c2)[C@]2(C)[C@H](C)CC[C@]3(CCC(=O)[C@H]32)[C@@H](C)[C@@H]1O`, the MIC in assay [1] is 32 µg/mL (≈ 57 µM); in the assay with Staphylococcus aureus [2] it was 16 µg/mL (≈ 28.5 µM); with Staphylococcus aureus [3], 32 µg/mL (≈ 57 µM); in the assay with Staphylococcus aureus [4], 64 µg/mL (≈ 114 µM); in the assay with Escherichia coli it was 64 µg/mL (≈ 114 µM); in the assay with Acinetobacter baumannii, above 128 µg/mL.
Regarding `C=C[C@]1(C)C[C@@H](OC(=O)COC(=O)/C=C/c2ccc(OC)c(OC)c2)[C@]2(C)[C@H](C)CC[C@]3(CCC(=O)[C@H]32)[C@@H](C)[C@@H]1O`, the MIC in assay [1] is 16 µg/mL (≈ 28.1 µM); in the assay with Staphylococcus aureus [2], 4 µg/mL (≈ 7.03 µM); in the assay on Staphylococcus aureus [3], 8 µg/mL (≈ 14.1 µM); in the assay with Staphylococcus aureus [4] it was 32 µg/mL (≈ 56.3 µM); with Escherichia coli, 64 µg/mL (≈ 113 µM); with Acinetobacter baumannii, above 128 µg/mL.
For `C=C[C@]1(C)C[C@@H](OC(=O)COC(=O)/C=C/c2ccc(OC)cc2)[C@]2(C)[C@H](C)CC[C@]3(CCC(=O)[C@H]32)[C@@H](C)[C@@H]1O`, the MIC in assay [1] was 2 µg/mL (≈ 3.71 µM); in the assay with Staphylococcus aureus [2], 4 µg/mL (≈ 7.43 µM); in the assay on Staphylococcus aureus [3] it was 8 µg/mL (≈ 14.9 µM); in the assay on Staphylococcus aureus [4] it was 16 µg/mL (≈ 29.7 µM); in the assay with Escherichia coli it was 32 µg/mL (≈ 59.4 µM); in the assay on Acinetobacter baumannii, above 128 µg/mL.
For the molecule `C=C[C@]1(C)C[C@@H](OC(=O)COC(=O)/C=C/c2cccs2)[C@]2(C)[C@H](C)CC[C@]3(CCC(=O)[C@H]32)[C@@H](C)[C@@H]1O`, the minimum inhibitory concentration (MIC) in assay [1] came out at 16 µg/mL (≈ 31.1 µM); in the assay with Staphylococcus aureus [2], 32 µg/mL (≈ 62.2 µM); in the assay on Staphylococcus aureus [3], 16 µg/mL (≈ 31.1 µM); with Staphylococcus aureus [4], 64 µg/mL (≈ 124 µM); with Escherichia coli it was 32 µg/mL (≈ 62.2 µM); in the assay with Acinetobacter baumannii, 64 µg/mL (≈ 124 µM).
Take `C=C[C@]1(C)C[C@@H](OC(=O)COC(=O)/C=C/c2ccc(F)cc2)[C@]2(C)[C@H](C)CC[C@]3(CCC(=O)[C@H]32)[C@@H](C)[C@@H]1O`: the minimal inhibitory concentration (MIC) in assay [1] is 32 µg/mL (≈ 60.8 µM); with Staphylococcus aureus [2], 16 µg/mL (≈ 30.4 µM); with Staphylococcus aureus [3], 32 µg/mL (≈ 60.8 µM); in the assay with Staphylococcus aureus [4], 32 µg/mL (≈ 60.8 µM); with Escherichia coli it was 128 µg/mL (≈ 243 µM); in the assay with Acinetobacter baumannii, 128 µg/mL (≈ 243 µM).
